A short description of data set [1]: Particle size distribution by laser diffraction (optical diameter). In kind it is physicochemical. The text has this: When referred to herein, the term “optical diameter” indicates the size of a particle as measured by the Fraunhofer diffraction mode using a laser diffraction particle size analyzer equipped with a dry powder dispenser (e.g., Sympatec GmbH, Clasthal-Zellerfeld, Germany).
Suspending particles were manufactured by spray drying an emulsion of PFOB (perfluorooctyl bromide) and water stabilized by DSPC (1,2-Distearoyl-sn-Glycero-3-Phosphocholine). […] The particle size distribution of the suspending particles was determined by laser diffraction.
Active agent particles formed of budesonide, 16,17-(butylidenebis(oxy))-11,21-dihydroxy-(11-β,16-α)-pregna-1,4-diene-3,20-dione, were formed by micronizing budesonide using a jet mill. The particle size distribution of the budesonide (BD) was determined by laser diffraction.

A short description of data set [2]: NGI aerosol performance stability data after storage of the MDI (valve down, protected). In kind it is physicochemical. Particulars: stored valve down and protected at 25° C./60% RH.
Where [3] appears, read: budesonide/formoterol co-suspension in HFO-1234ze(E).

As to `COc1ccc(CC(C)NCC(O)c2ccc(O)c(NC=O)c2)cc1.O=C(O)/C=C/C(=O)O` (racemic) [formoterol fumarate, (±)-2-hydroxy-5-[(1RS)-1-hydroxy-2-[[(1RS)-2-(4-methoxyphenyl)-1-methylethyl]-amino]ethyl]formanilide fumarate], in data set [1], the “optical diameter that 50% by volume of the particles are smaller than” value (from here on “optical diameter that 50% by volume”) is given as “smaller than 1.6 μm” and the “optical diameter that 90% by volume of the particles are smaller than” value (“optical diameter that 90% by volume” below) is “smaller than 3.9 μm”. In the case of `CCCCCCCCCCCCCCCCCC(=O)OC[C@H](COP(=O)([O-])OCC[N+](C)(C)C)OC(=O)CCCCCCCCCCCCCCCCC` [DSPC, 1,2-Distearoyl-sn-Glycero-3-Phosphocholine], in data set [2] (setting [3]), the “stability of the aPSD” value is reported as “stable for twelve months”. Regarding `CCCC1O[C@@H]2C[C@H]3[C@@H]4CCC5=CC(=O)C=C[C@]5(C)[C@H]4[C@@H](O)C[C@]3(C)[C@]2(C(=O)CO)O1` (stereo partly drawn) [budesonide, 16,17-(butylidenebis(oxy))-11,21-dihydroxy-(11-β,16-α)-pregna-1,4-diene-3,20-dione], the “stability of the aPSD” value in data set [2] (budesonide/albuterol co-suspension in HFO-1234ze(E)) and in data set [2] (setting [3]) was “stable for twelve months” each time. Regarding `C[N+]1(C)CCC(OC(=O)C(O)(c2ccccc2)C2CCCC2)C1.[Br-]` (stereo not drawn) [glycopyrrolate, Pyrrolidinium, 3-((cyclopentylhydroxyphenylacetyl)oxy)-1,1-dimethyl-, bromide], in data set [1], the “optical diameter that 50% by volume” value is “smaller than 2.1 μm” and the “optical diameter that 90% by volume” value was “smaller than 5 μm”. On to albuterol sulfate, for which, in data set [1], the “optical diameter that 50% by volume” value is “smaller than 1.5 μm” and the “optical diameter that 90% by volume” value is on record as “smaller than 3.3 μm”.

The values above are taken from patent publication US20240325298A1, “COMPOSITIONS, METHODS AND SYSTEMS FOR AEROSOL DRUG DELIVERY” (AstraZeneca Pharmaceuticals LP, priority 2021, published 2024).
